This passage reports IC50, Ki and IC80 results from patent publication US11357752B2, “Carolacton and derivatives thereof for use in the treatment of cell proliferation disorders” (Helmholtz-Zentrum für Infektionsforschung GmbH, priority 2017, dated 2022).

Experiment [1] concerns the target T1, ecFoID (Escherichia coli, UniProt P24186).
T1 construct: His-tag (vector pHis-TEV); made in house; host or cells: E. coli BL21 (DE3)
The experiment can be described thus: FoID cyclohydrolase (CYH) enzyme assay. The format is biochemical, E. coli. On the procedure: (§1) (6R,S)-5,10-Methylene-5,6,7,8-tetrahydrofolic acid ((6R,S)-5,10-CH2-THF), calcium salt and (6R,S)-5,10-Methenyl-5,6,7,8-tetrahydrofolic acid ((6R,S)-5,10-CH=THF) chloride were purchased from Schircks Laboratories (Bauma, Switzerland) and were used as substrates for FoID dehydrogenase and cyclohydrolase enzyme assays, respectively. Only the R-isomer, which accounts for 50% of (6R,S)-5,10-CH2-THF and (6R,S)-5,10-CH=THF, respectively, is used by the enzyme. (6R,S)-5,10-CH2-THF was dissolved in N2-spargeled basic buffer (50 mM Tris-HCl (pH 8.0), 100 mM β-mercaptoethanol) as described by Sah and Varshney, 2015a (6R,S)-5,10-CH=THF was first dissolved in DMSO as a 100 mM stock solution.
Because FoID is a bifunctional enzyme, dehydrogenase and cyclohydrolase activities were determined for FoID enzyme kinetics, respectively. The dehydrogenase activity of FoID was assayed for its substrate 5,10-CH2-THF and cofactor NADP+ (in the case of MTHFD2, NAD+ was used as cofactor) based on monitoring the formation of 5,10-CH=THF while the cyclohydrolase activity of FoID was determined for its substrate 5,10-CH=THF by monitoring the hydrolysis of 5,10-CH2-THF. The enzyme kinetics for the dehydrogenase activity of all FoIDs except hsMTHFD1_DC were determined at 30° C. in 50 mM Tris-HCl (pH 7.5), 30 mM β-mercaptoethanol. […]

In experiment [2] the target is T2, spFoID (Streptococcus pneumoniae serotype 4, UniProt Q97RI9).
T2 construct: made in house; host or cells: E. coli BL21 (DE3)
The experiment can be described thus: FoID dehydrogenase (DH) enzyme assay. The format is biochemical, S. pneumoniae. On the procedure:
as §1
Because FoID is a bifunctional enzyme, dehydrogenase and cyclohydrolase activities were determined for FoID enzyme kinetics, respectively. The dehydrogenase activity of FoID was assayed for its substrate 5,10-CH2-THF and cofactor NADP+ (in the case of MTHFD2, NAD+ was used as cofactor) based on monitoring the formation of 5,10-CH=THF while the cyclohydrolase activity of FoID was determined for its substrate 5,10-CH=THF by monitoring the hydrolysis of 5,10-CH2-THF. The enzyme kinetics for the dehydrogenase activity of all FoIDs except hsMTHFD1_DC were determined at 30° C. in 50 mM Tris-HCl (pH 7.5), 30 mM β-mercaptoethanol. The hsMTHFD1_DC dehydrogenase activity was measured in 25 mM MOPS (pH 7.3), 30 mM β-mercaptoethanol at 30° C. To measure the enzyme kinetics constants for 5,10-CH2-THF, for example in the case of ecFoID, the NADP concentration was fixed at 1 mM and the concentration of 5,10-CH2-THF varied from 5 μM to 1,500 μM (R-isomer). Similarly, to measure the kinetic constants of ecFoID for NADP+, the concentration of 5,10-CH2-THF (R-isomer) was fixed at 1 mM and the concentration of NADP+ varied from 10 μM to 1,500 μM. For different FoIDs, the varied concentration range of substrates could be different. […] To monitor the formation of 5,10-CH=THF, the absorbance of the reaction mixture was monitored at 350 nm in micro UV cuvettes (BRAND, Essex, Connecticut, USA). The concentration of 5,10-CH=THF produced in the reaction was determined using an extinction co-efficient of 0.0249 μM-1 cm-1. […] The consumption of 5,10-CH=THF was measured by recording the absorbance of the reactions at 355 nm using the TECAN Infinite 200 PRO equipped with a monochromator. […] The inhibition constants (Ki) of carolacton on FoID were determined by measuring the apparent Km values when adding certain amounts of carolacton to the enzyme reactions. […] To compare the inhibition effects of carolacton between the different FoIDs, the half maximal inhibitory concentration (IC50) of carolacton on the same amount of enzyme was determined for FoIDs involved in this study. […]

Where “and” joins values, the source holds several entries; their conditions need not be identical. Equal entries are not always repeated. Where two headings read alike, the source gives them in different places.

T2 sequence (Q97RI9 whole entry): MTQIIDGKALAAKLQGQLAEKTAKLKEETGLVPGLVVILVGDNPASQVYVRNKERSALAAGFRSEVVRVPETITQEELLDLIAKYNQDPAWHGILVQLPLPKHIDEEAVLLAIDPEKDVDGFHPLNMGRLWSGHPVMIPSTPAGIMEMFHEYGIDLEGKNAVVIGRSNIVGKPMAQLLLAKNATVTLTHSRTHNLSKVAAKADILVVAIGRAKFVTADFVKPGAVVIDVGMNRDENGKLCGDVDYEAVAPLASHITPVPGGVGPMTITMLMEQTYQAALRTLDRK

As for `CO[C@H](CC(=O)O)[C@@H](C)C(=O)[C@H](C)/C=C(\C)[C@H]1OC(=O)[C@H](O)[C@H](O)/C=C/[C@H](C)CCC[C@@H]1C` [Carolacton, carolacton], the IC50 in experiment [1] was determined as 49.8 nM; in experiment [2] (10 nM enzyme, read-out: IC50, carolacton inhibition on DH activity) it was 36.8 nM. Moreover, the Ki was 32 nM and 31.6 nM in experiment [1] (Ki (5,10-CH═THF), carolacton inhibition on CYH activity, ecFoID, vs 5,10-CH=THF); 42.2 nM in experiment [2] (vs 5,10-CH2-THF, read-out: Ki (5,10-CH2—THF), carolacton inhibition on DH activity); 34.2 nM in experiment [2] (vs cofactor NADP+, read-out: Ki (NADP^+), carolacton inhibition on DH activity). Also, the concentration for an effect of 80% (IC80) in experiment [2] (10 nM enzyme, read-out: IC80, carolacton inhibition on DH activity) is 169 nM.
